{
  "source": "patent US20190231411A1",
  "about": "“METHOD FOR PREDICTING CYTOTOXICITY OF COLD ATMOSPHERIC PLASMA TREATMENT ON CANCER CELLS” (U.S. Patent Innovations, LLC, priority 2018, published 2019)",
  "system": "B16F10 cells",
  "experiment": "H2O2 treatment, MTT cell viability assay",
  "assay_type": "cell-based, murine",
  "conditions": "compared with the other cell lines, FIG. 7B",
  "procedure": "Cell cultures. The experiment investigated 10 cancer cell lines, which include many representative cell lines in plasma medicine. Human pancreas ductal adenocarcinoma cell line (PANC-1) was purchased from American Type Culture Collection (ATCC). Other cell lines were donated by several labs at the George Washington University. These cells were all purchased from ATCC by the different labs. Human pancreatic adenocarcinoma cell line (PA-TU-8988T), human glioblastoma cell line (U87MG), as well as human lung carcinoma cell line (A549) were provided by Dr. Murad's lab. Human breast cancer cell lines (MDA-MB-231, MCF-7) were provided by Dr. Zhang's lab. Human ovarian carcinoma cell line (SK-OV-3), human ovarian carcinoma cell line (IGROV-1), human colorectal carcinoma cell line (HCT116), as well as human bone osteosarcoma cell line (U-2 OS) were provided by Dr. Zhu's lab. Murine melanoma cell line (B16F10) was provided by Dr. Sotomayor's lab. […]\nCell viability assay. […] The absorbance at 570 nm was measured by a H1 microplate reader (Hybrid Technology). The measured absorbance was processed to be a relative cell viability by the division between the data of the experimental group and the control group.",
  "data": [
    {"molecule": "OO", "note": "[H2O2]", "values": [
      {"measurement": "resistance to H2O2 treatment", "result": "strongest resistance to H2O2 treatment"}
    ]}
  ]
}
